Reference: PMC4351682, “Formononetin inhibits enterovirus 71 replication by regulating COX- 2/PGE2 expression” (Virology Journal, 2015)

Columns and labels:
EV71 SHZH98 strain = test: CPE inhibition assay for anti-EV71 in Vero cells; format: cell-based, enterovirus 71; settings: Enterovirus A, 48 h
Experimental: The anti-EV71 activity of formononetin was assayed by CPE inhibition method. Briefly, cells (3 × 10^4 cells/well) were plated into 96-well culture plates for incubation of 24 h. The medium was then removed and cells were infected with EV71 of 80 pfu/well. Then, various concentrations of formononetin were supplemented for incubation of another 48 h. […] The selectivity index (SI) was calculated as the ratio of TC50/IC50 [19].

EV71 (SHZH98) = test: Time course assay (CPE) in SK-N-SH cells; format: cell-based, enterovirus 71; settings: for Reduction of virus-induced CPE, time course: CPE at 48 h
Experimental: Figure 1 The chemical structure of formononetin and time course assay. (A) The illustration of the protocol of viral adsorption and treatment with formononetin and pirodavir. SK-N-SH cells were infected with 80 pfu/well of EV71 (SHZH98). Formononetin (9.21 μM) and pirodavir (0.84 μM) was added at the indicated times, respectively. […] The cytopathic effect (CPE) assay was shown. (C) The chemical structure of formononetin.
The antiviral activity of formononetin was examined at different time periods before and after viral infection as shown in Figure 1A. Briefly, cells (3 × 10^4 cells/well) were seeded and incubated for 16 h. The cell monolayer was then infected with EV71 of 80 pfu/well. Different concentrations of formononetin were supplemented into cells following the protocol. Cells were then incubated for another 48 h and assayed with CPE assay.

EV71 VP1 protein = test: Western blot of EV71 VP1 protein in SK-N-SH cells; format: cell-based, enterovirus 71; settings: EV71 SHZH98 infected SK-N-SH cells
From the text: Figure 2 The antiviral effect of formononetin and pirodavir against EV71 in SK-N-SH cells. (A) Formononetin and pirodavir reduced the expression of EV71 VP1 protein in SK-N-SH cells by western blot assay. (B) Formononetin and pirodavir reduced the expression of EV71 VP1 protein in SK-N-SH cells by immunofluorescence assay. Cells were examined using a fluorescence microscopy (×100). (C) Formononetin and pirodavir reduced the expression of EV71 VP1 RNA by one-step qRT-PCR assay. *P < 0.001 ^# P < 0.05.
(§1) Cells were lysed in the M-PER mammalian protein extraction reagent (Thermo, Rockford, IL) containing halt protease inhibitor single-use cocktail (Thermo). The protein concentration was determined by the BCA reagents (Thermo). About 10 μg proteins were denatured and applied to sodium dodecyl sulfate-polyacrylamide gel electrophoresis (SDS-PAGE). The electrophoresis products were transferred to a polyvinyl idenefluoride (PVDF) film and PVDF membranes were then incubated at room temperature with specific primary antibody. After a standard washing, membranes were incubated with horse radish peroxidase (HRP)-labeled secondary antibody. The assay developed using a chemiluminescent substrate. […]

ERK = test: Western blot of EV71-induced phosphorylation of ERK in SK-N-SH cells; format: cell-based; settings: pretreatment 24 h, formononetin 14.91 μmol/L, pirodavir 1.08 μmol/L, EV71 15 min
Experimental: (§2) Figure 3 Formononetin but not pirodavir reduces the phosphorylation of ERK (A), p38 (B), and JNK (C) induced by EV71 infection. SK-N-SH cells (9 × 10^5 cells/well) were plated into 6-well culture plates. The cells were then pretreated with formononetin (14.91 μmol/L) and pirodavir (1.08 μmol/L), respectively. After 24 h, the cells were mock-infected or infected with 4.8 × 10^5 pfu/well of EV71 (SHZH98) for 15 min (A), 10 min (B), and 30 min (C), respectively. The cells were harvested and ERK (A) p-ERK (A), p38 (B), p-p38 (B), JNK (C), and p-JNK (C) were detected by western blot.
as §1

p38 = test: Western blot of EV71-induced phosphorylation of p38 in SK-N-SH cells; format: cell-based; settings: pretreatment 24 h, formononetin 14.91 μmol/L, pirodavir 1.08 μmol/L, EV71 10 min
Experimental: as §2, §1

COX-2 = test: Western blot of EV71-induced COX-2 expression in SK-N-SH cells; format: cell-based; settings: formononetin 14.91 μmol/L, pirodavir 1.08 μmol/L, 24 h
Experimental: Figure 4 Formononetin could inhibit EV71-induced COX-2 expression and PGE 2 production. (A) Formononetin but not pirodavir can reduce the expression of COX-2 induced by EV71 infection. SK-N-SH cells were mock-infected or infected with 480 pfu/well of EV71 (SHZH98) for 2 h. The cells were then treated with formononetin (14.91 μmol/L) and pirodavir (1.08 μmol/L), respectively, for 24 h. The cells were harvested and EV71-VP1 and COX-2 were examined by western blot. (B) Formononetin but not pirodavir can reduce the release of PGE2 stimulated by EV71 infection. SK-N-SH cells were pretreated with formononetin (14.91 μmol/L) or pirodavir (1.08 μmol/L) for 24 h. The cells were infected with 4.8 × 10^5 pfu/well of EV71 (SHZH98). At 24 h p.i., the culture supernatants were harvested for PGE2 release assay. Cells were lysed in the M-PER mammalian protein extraction reagent (Thermo, Rockford, IL) containing halt protease inhibitor single-use cocktail (Thermo). The protein concentration was determined by the BCA reagents (Thermo). About 10 μg proteins were denatured and applied to sodium dodecyl sulfate-polyacrylamide gel electrophoresis (SDS-PAGE). The electrophoresis products were transferred to a polyvinyl idenefluoride (PVDF) film and PVDF membranes were then incubated at room temperature with specific primary antibody. […]

| SMILES | IC50 (EV71 SHZH98 strain) | Reduction of virus-induced CPE, time course (EV71 (SHZH98); formononetin 9.21 μM added at 24 and 12 h before, and 0 to 6 h after EV71 infection) | Reduction of virus-induced CPE, time course (EV71 (SHZH98); formononetin 9.21 μM added at −1, 9, and 12 h of EV71 infection) | Expression of EV71 VP1 protein (western blot) (EV71 VP1 protein) | EV71-stimulated phosphorylation of ERK (ERK) | EV71-stimulated phosphorylation of p38 (p38) | EV71-stimulated COX-2 expression (COX-2) | Reduction of virus-induced CPE, time course: effective time of addition (EV71 (SHZH98); pirodavir 0.84 μM, effective 0–9 h p.i., not before or during the infection) |
| --- | --- | --- | --- | --- | --- | --- | --- | --- |
| COc1ccc(-c2coc3cc(O)ccc3c2=O)cc1 [Formononetin] | 3.45 ± 0.55 µM | able to effectively reduce virus-induced CPE | did not exert this effect | decrease the expression of VP1 protein in a dose dependent manner | significantly attenuated | significantly attenuated | inhibited | – |
| CCOC(=O)c1ccc(OCCC2CCN(c3ccc(C)nn3)CC2)cc1 [Pirodavir, reference compound] | 0.38 ± 0.08 µM | – | – | decrease | not | not | not | functioned only after viral infection (0–9 h p.i.) |
